Measurements from US8071548B2, “Method of reducing injury to mammalian cells” (Nono, Inc., priority 2002, dated 2011).

What was measured:
[1] = Baseline behaviours after single i.v. injection; assay type: in vivo, Sprague-Dawley rats; conditions: over 4 hours, 0.5-50 nmols/g
[2] = test system: cortical neuronal cultures; experiment: Sublethal stretch injury with or without NMDA, cell death in cortical cultures; assay type: cell-based
Description: […]. In brief, cerebral cortices from 10 to 12 embryos were incubated for 10 min in 0.05% trypsin-EDTA, dissociated by trituration, and plated on flexible membranes coated with poly-L-ornithine in 6 well plates (Flexcell International Corporation, Hillsborough, N.C.) at a density of 3.25×10^6 cells per well. Plating medium consisted of DMEM supplemented with 10% heat-inactivated horse serum (Gibco) and (in mM) 2 glutamine, 25 glucose, and 26 bicarbonate. The cultures were maintained at 37° C. in a humidified 5% CO2 atmosphere. After 3 days in vitro, growth of non-neuronal cells was halted by a 48 h exposure to 10 μM FDU-solution (5 μM uridine, 5 μM (+)-5-fluor-2′-deoxyuridine). This produces cultures in which >85% of the cells are neurons, based on immunohistochemical staining for glial fibrillary associated protein (exclusive to astrocytes), and for the NMDAR1 subunit (not shown). The cultures were used for experiments after 12-14 days in vitro.
The cultures, grown on silastic membranes as above, were placed in the Flexercell® FX-3000™ Strain Unit (Flexcell Int., Inc.), a computer-driven instrument that uses a vacuum pulse to deform the culture substrate. In all experiments, the cortical cultures were stretched to 130% of their original length for 1 s, inducing a sublethal injury as recently characterized by us (Arundine et al., 2003). The stretched neurons maintained cell membrane integrity, viability, and electrophysiological function.
Cell death was determined by serial quantitative measurements of propidium iodide (PI) fluorescence using a multiwell plate fluorescence scanner (Cytofluor II, PerSeptive Biosytems, Framingham, Mass., USA) as described previously (Sattler et al., 1997; Sattler et al., 1998). In brief, the culture medium in each tissue culture well was replaced with control solution containing 50 μg/ml PI, and a baseline fluorescence reading was taken. Sequential readings were then taken at appropriate intervals over the 20 h observation period. The fraction of dead cells in each culture at a given time was calculated as: Fraction dead=(Ft−Fo)/FNMDA Where Ft=PI fluorescence at time t, F0=initial PI fluorescence at time zero and FNMDA=background subtracted PI fluorescence of identical cultures from the same dissection and plating, 20-24 h after a 60 min exposure to 1 mM NMDA at 37° C. Based on manual observations at the time of validation of this technique, this NMDA exposure routinely produced near complete neuronal death in each culture but had no effect on surrounding glia (also see (Bruno et al., 1994; David et al., 1996; Sattler et al., 1997)). Adding Triton X-100 (0.1%) to cultures treated in this manner produced an additional 10-15% increase in PI fluorescence due to permeabilization of non-neuronal cell membranes, consistent with a 10-15% glial component in the cultures.
All experiments were performed at 37° C. Unless otherwise indicated, all solutions contained nimodipine (2 μM) and CNQX (10 μM) to restrict the actions of applied NMDA to NMDARs by preventing the secondary activation of other pathways (Sattler et al., 1998). In general, the cultures were washed ×2 with control solution and immediately stretched to 130% of their original length for 1 s. After the stretch, they were washed ×1 with control solution alone or challenged with an additional treatment (e.g., NMDA) and placed at 37° C. for 1 h. They were then washed ×1 with control solution and then with control solution containing 50 μg/ml PI to obtain a baseline reading. In pilot studies, baseline readings obtained at this stage were similar to those obtained by staining the cells with PI prior to stretch. As the stretch causes splashing of the bath solution, staining with PI after stretch reduced biohazard potential and artifacts associated with PI outside the culture well. Unstretched controls were manipulated identically to stretched cultures.

CA1 neurons = experiment: Electrophysiological recordings in acute hippocampal slices (CA1 neurons); set-up: species or system rat; conditions: 50 nM bath-applied
Description: Electrophysiological Recordings were made in […] hippocampal slices from 20-36 day old Sprague-Dawley rats perfused at room temperature with ACSF containing (in mM) 126 NaCl, 3 KCl, 2 MgCl2, 2 CaCl2, 1.2 KH2PO4, 26 NaHCO3 and 10 glucose and bubbled with 95% O2/5% CO2. Whole-cell recordings of CA1 neurons were performed using the “blind” method with an Axopatch-1D amplifier (Axon Instruments, Foster City, Calif.) at holding potential −60 mV. Pipettes (4-5 MΩ) were filled with solution containing (mM): 135 CsCl, 2 MgCl2, 0.1 CaCl2, 0.5 EGTA, 10 HEPES, 4 Mg-ATP, 0.2 GTP, and 5 QX-314, pH 7.4, 310 mOsm. Field potentials were recorded with glass micropipettes (2-4 MΩ) filled with ACSF placed in the stratum radiatum […] from the cell body layer. Synaptic responses were evoked by stimulation (0.05 ms) of the Schaffer collateral-commissural pathway with a bipolar tungsten electrode in the presence of bicuculline methiodide (10 μM). For INMDA recording, Mg^2+ was removed from and 20 μM CNQX was added in ACSF. Following 10-20 min base line recordings of EPSCs, INMDA and fEPSPs, Tat-peptides were applied in ACSF and recordings were continued for 30 min thereafter.

nitrotyrosine = experiment: Nitrotyrosine immunostaining (peroxynitrite formation); assay type: cell-based, mouse; conditions: pretreatment, 12 h post-NMDA challenge
Description: Cultures were fixed with warm 4% paraformaldehyde and 4% sucrose in PBS for 20 min, permeabilized with 0.1% Triton X-100 for 10 min at 4° C., and blocked with 10% goat serum in PBS for 1 h at RT. Immunofluorescence was visualized with an inverted Nikon microscope using a 40× oil immersion lens. FITC, rhodamine and Hoechst were visualized using 465-495 excitation and 515-555 nm emission, 510-560 nm excitation and 590 nm emission, and 340 nm excitation and 510 nm emission, respectively. Active caspase 3 was labelled by incubating the cultures with a purified rabbit monoclonal anti-active caspase 3 antibody (1:300; BD PharMingen) and a fluorescein-conjugated goat anti-mouse IgG secondary antibody (1:500; Transduction Labs). Nitrotyrosine was labelled by incubating the cultures with a rabbit polyclonal α-nitrotyrosine primary antibody (1:300; Upstate) and a rhodamine-conjugated goat anti-rabbit IgG secondary antibody (1:500; Transduction Labs). AIF was labelled by incubating the cultures with an AIF antibody (1:200; Santa Cruz, (Zhang et al., 2002)) and a rhodamine-conjugated goat anti-mouse IgG secondary antibody (1:500; Transduction Labs). In some experiments, nuclei were counter-stained with Hoechst 33258 (1:5,000, Transduction Labs).

[3] = test system: transient middle cerebral artery occlusion; experiment: Transient MCAO, dose study of infarct size; assay type: in vivo, Sprague-Dawley rats

Tat-KLSSIESDV [Tat-NR2B9c]
changes in sensory-motor, open field, or exploratory behaviour [1]: No significant changes
toxic effects in control or stretched cultures ([2]; 50 nM): no toxic effects
heightened vulnerability of stretched cultures to NMDA toxicity, pre-treatment ([2]; 50 nM 30 min prior to stretch, NMDA 30 μM 1 h, cell death at 20 h): completely abolished
enhanced cell mortality in stretched neurons by NMDA challenge, post-treatment ([2]; 50 nM applied after terminating the 1 h NMDA challenge): reduced the enhanced cell mortality
synaptic responses, total EPSC and AMPA or NMDA components of the EPSC in CA1 neurons (CA1 neurons): had no effect
nitrotyrosine immunoreactivity (nitrotyrosine): reduced nitrotyrosine immunoreactivity
efficacy of the lowest dose versus higher doses ([3]; 0.03 nmole/g, 3 h after stroke onset): equally effective
infarct size versus control dose ([3]; 0.03, 0.3, 1 or 3 nmoles/g i.v. 3 h after stroke onset, measured 24 h after MCAO onset): significant reduction in infarct size
